# Literature values in PMC12308805, “Ultrahigh-Throughput Virtual Screening Strategies against PPI Targets: A Case Study of STAT Inhibitors” (Journal of Chemical Information and Modeling, 2025).
# Square brackets hold non-standard residues; d marks the D form. Peptide text beside a SMILES is read from it. * marks the point of attachment. pY = N[C@@H](Cc1ccc(OP(=O)(O)O)cc1)C(=O)O; NH(1R-phenylethyl) = C[C@@H](N*)c1ccccc1
# Tested on: STAT3
# Conditions: sheet 6QHD_actives_decoys, retrospective screening set for STAT3 SH2 domain (PDB 6QHD); decoys are presumed inactives, not tested; ref DUD-E; cited from earlier work
row,SMILES,Type
1,C[n+]1c(N[N-]S(=O)(=O)c2cccc(C(=O)NC(C)(C)CC(C)(C)CC(C)(C)C)c2)sc2ccc(S(=O)(=O)C(F)F)cc21 [Decoy889],Inactive (Decoy)
2,CC[C@H]1OC(=O)[C@@H](C)[C@@H](O[C@@H]2C[C@@](C)(OC)[C@H](O)[C@H](C)O2)[C@@H](C)[C@@H](O[C@H]2O[C@@H](C)C[C@@H](N(C)C)[C@H]2O)[C@](C)(OC)C[C@@H](C)C(=O)[C@@H](C)[C@@H](O)[C@]1(C)O [Decoy775],Inactive (Decoy)
3,COc1cc(C(=O)NNC(=S)NC(=O)COc2ccc(Br)cc2C)cc(OC)c1OC [Decoy856],Inactive (Decoy)
4,CO[C@@H]1[C@@H](OC(N)=O)[C@H](O)[C@@H](Oc2ccc3c(O)c(NC(=O)c4ccc(O)c(CC=C(C)C)c4)c(=O)oc3c2C)OC1(C)C [Decoy883],Inactive (Decoy)
5,Cc1noc(C)c1CSc1ncccc1C(=O)O[C@H](C)C(=O)Nc1sccc1C(N)=O [Decoy904],Inactive (Decoy)
6,O=C(CNS(=O)(=O)c1ccc(NC(=S)Nc2ccc([N+](=O)[O-])cc2)cc1)c1ccccc1 [Decoy913],Inactive (Decoy)
7,CCOC(=O)c1ccc(NC(=O)C(=O)NCc2ccc(/C=C3\C(=O)N(c4ccc(Cl)c(Cl)c4)C(C)=C3C(=O)OC)o2)cc1 [Decoy846],Inactive (Decoy)
8,OC[C@@H]1O[C@H](O[C@H]2O[C@H](CO)[C@H](O)[C@H](OCc3ccccc3)[C@@H]2OCc2ccccc2)[C@H](OCc2ccccc2)[C@H](OCc2ccccc2)[C@@H]1O [Decoy949],Inactive (Decoy)
9,CCCCCCCCO[C@@H]1[C@@H](O)[C@H](O)O[C@H](Cn2c(=O)n(C[C@H]3O[C@@H](O)[C@H](O)[C@@H](OCCCCCCCC)[C@@H]3O)c3cc(Cl)ccc32)[C@H]1O [Decoy957],Inactive (Decoy)
10,O=C1N=C([C@]2(C3=Nc4nnc(/N=C(\O)Nc5ccc(Cl)cc5)n4C3=O)Cc3ccccc3C2=O)n2c(/N=C(\O)Nc3ccc(Cl)cc3)nnc21 [Decoy896],Inactive (Decoy)
11,O=C(O)CN(CC(=O)O)C[C@@H](Cc1ccc(NCCCCCN2C(=O)C=CC2=O)cc1)N(CC(=O)O)CC(=O)O [Decoy882],Inactive (Decoy)
12,CC(=O)Nc1ccc(S(=O)(=O)NCCCCNc2ccc([N+](=O)[O-])c3cccnc23)cc1 [Decoy809],Inactive (Decoy)
13,CCOC(=O)N[C@@](Nc1ccc(S(=O)(=O)Nc2ncccn2)cc1)(C(=O)OCC)C(F)(F)F [Decoy792],Inactive (Decoy)
14,COCCNC(=O)[C@@H](c1ccc(F)cc1)N(C(=O)c1snc(C(N)=O)c1N)c1ccc2c(c1)OCO2 [Decoy808],Inactive (Decoy)
15,COc1c([C@@H]2OC[C@@H](OC(C)=O)[C@@H](OC(C)=O)[C@H]2OC(C)=O)c(O)cc2oc(-c3ccc(O[C@H]4O[C@@H](CO)[C@@H](O)[C@@H](O)[C@H]4O)cc3)cc(=O)c12 [Decoy773],Inactive (Decoy)
16,CSCC[C@@H](NC(=O)[C@H](N)Cc1ccc(O)cc1)C(=O)N[C@H](Cc1ccccc1)C(=O)N[C@H](Cc1c[nH]cn1)C(=O)N[C@@H](CC(C)C)C(=O)N[C@H](CCSC)C(=O)N[C@@H](CC(=O)O)C(N)=O [Decoy814] (H-[dY][dM][dF][dH]L[dM]D-NH2),Inactive (Decoy)

# Same assay, conditions: sheet 6QHD_actives_decoys; known STAT3 actives of the retrospective screening set; ref ChEMBL / literature; cited from earlier work
row,SMILES,Type (known STAT3 active)
1,CC(=O)N[C@@H](Cc1ccc(OP(=O)(O)O)cc1)C(=O)N[C@@H](CC(C)C)C(=O)N1CCC[C@H]1C(=O)N[C@@H](CCC(N)=O)C(=O)N[C@H](C)c1ccccc1 [CHEMBL193433] (Ac-[pY]LPQ-{NH(1R-phenylethyl)}),Active
2,NC(=O)CC[C@H](NC(=O)[C@@H]1Cc2cccc3c2N1C(=O)[C@@H](NC(=O)/C=C/c1ccc(OP(=O)(O)O)cc1)CC3)C(N)=O [CHEMBL449511],Active
3,CC(=O)OC[C@H](CCC(N)=O)NC(=O)[C@@H]1[C@@H]2C[C@@H]2CN1C(=O)[C@H](CC(C)C)NC(=O)/C=C/c1ccc(OP(=O)(O)O)cc1 [CHEMBL583726],Active

# Same assay, conditions: sheet 6QHD_actives_decoys; retrospective screening set for STAT3 SH2 domain (PDB 6QHD); […]; ref DUD-E; cited from earlier work
row,SMILES,Type
1,CO[C@@H]1C[C@H](O[C@H]2CC[C@]3(/C=N/CC#N)[C@H]4CC[C@]5(C)[C@@H](C6=CC(=O)OC6)CC[C@]5(O)[C@@H]4CC[C@]3(O)C2)O[C@@H](C)[C@@H]1O [Decoy348],Inactive (Decoy)

# Same assay, conditions: sheet 6QHD_actives_decoys; retrospective screening set for STAT3 SH2 domain (PDB 6QHD); decoys generated with DUD-E and presumed inactive, not tested; ref DUD-E; cited from earlier work
row,SMILES,Type
1,COC(=O)[C@@H]1O[C@H](OCC(=O)[C@@]2(O)CC[C@@H]3[C@H]4CCC5=CC(=O)CC[C@@]5(C)[C@@H]4[C@@H](O)C[C@@]32C)[C@@H](OC(C)=O)[C@H](OC(C)=O)[C@H]1OC(C)=O [Decoy633],Inactive (Decoy)
2,NC(=O)CN(CC(N)=O)c1ccc(F)cc1OCCOc1cc(F)ccc1N(CC(N)=O)CC(N)=O [Decoy400],Inactive (Decoy)
3,COCCN(CCOC)S(=O)(=O)c1ccc(C(=O)Nc2sccc2C(=O)NN(C)C)cc1 [Decoy623],Inactive (Decoy)
4,CC(=O)OC[C@H]1O[C@@H](O[C@@]2(CO)O[C@@H](CO)[C@@H](OC(C)=O)[C@H]2OC(C)=O)[C@@H](OC(C)=O)[C@@H](OC(C)=O)[C@@H]1O [Decoy643],Inactive (Decoy)
5,Cc1cc(C)n(Cc2ccc(NC(=S)Nc3ccc(S(=O)(=O)Nc4ncccn4)cc3)cc2)n1 [Decoy696],Inactive (Decoy)
6,C/C=C1/[C@H](O[C@@H]2O[C@H](CO)[C@@H](O)[C@H](O)[C@H]2O)OC=C(C(=O)OC)[C@H]1CC(=O)OCCc1ccc(O)c(O)c1 [Decoy367],Inactive (Decoy)
7,O=C(/C=C/c1ccc(O)c2c1[C@@H](C(=O)O[C@@H](Cc1ccc(O)c(O)c1)C(=O)O)[C@H](c1ccc(O)c(O)c1)O2)O[C@H](Cc1ccc(O)c(O)c1)C(=O)O [Decoy572],Inactive (Decoy)
8,CCN(CC)S(=O)(=O)c1ccc(NC(=O)CSc2n[nH]c(NN=C3CCCC3)n2)cc1 [Decoy684],Inactive (Decoy)
9,Nc1ncnc2c1ncn2[C@@H]1O[C@@H](CO[P@@](=O)(O)O[P@@](=O)(O)OC[C@H](O)[C@H](O)[C@H](O)C=O)[C@@H](O)[C@H]1O [Decoy402],Inactive (Decoy)
10,CC(=O)N[C@H]1[C@H]([C@H](O)[C@H](O)CO)O[C@@](O[C@H]2[C@@H](O)[C@@H](CO)O[C@@H](O[C@@H]([C@H](O)[C@@H](O)C=O)[C@H](O)CO)[C@@H]2O)(C(=O)O)C[C@@H]1O [Decoy664],Inactive (Decoy)
11,COc1ccc(/C=N\N=C2/NC(=O)[C@@H](CC(=O)Nc3ccc([N+](=O)[O-])cc3)S2)c(C(=O)O)c1OC [Decoy694],Inactive (Decoy)
12,CCOC(=O)C(Sc1nc(N)c(NC(=O)c2ccc(Br)o2)c(=O)[nH]1)C(=O)OCC [Decoy673],Inactive (Decoy)
13,Nc1nc(OCc2cc(Br)cs2)c2ncn(CCCCCCCCO[C@@H]3O[C@@H](CO)[C@@H](O)[C@@H](O)[C@@H]3O)c2n1 [Decoy329],Inactive (Decoy)
14,COc1ccccc1CNC(=O)C[C@@H]1[C@H](O)CC[C@@H]2[C@](C)(CO)[C@H](OC(=O)Nc3cc(OC)c(OC)c(OC)c3)CC[C@]21C [Decoy724],Inactive (Decoy)
15,COc1c([C@@H]2OC[C@H](OC(C)=O)[C@@H](OC(C)=O)[C@H]2OC(C)=O)c(O)cc2oc(-c3ccc(O[C@H]4O[C@@H](CO)[C@@H](O)[C@@H](O)[C@H]4O)cc3)cc(=O)c12 [Decoy411],Inactive (Decoy)
16,Cc1cc(C)nc(N/C(=N\C(=S)NCCCN2CCOCC2)Nc2ccc(Cn3cncn3)cc2)n1 [Decoy399],Inactive (Decoy)
17,CC(=O)O[C@@H]1[C@H](O)[C@H](CO)O[C@H](OCC2=CO[C@H](OC(=O)CC(C)C)[C@H]3[C@H]2C[C@H](OC(C)=O)[C@@]3(C)O)[C@@H]1OC(C)=O [Decoy569],Inactive (Decoy)
